Test results as given in patent publication US8642766B2, “Synthesis of (+) cortistatin A and related compounds” (priority 2008, dated 2014).

Experiments:
HUVECs = assay: Assay to determine activity against HUVECs (carried out by Pfizer, Inc.); assay type: cell-based, human; details: for IC50: synthetic material, tested by Pfizer, Inc.
Description: [Aoki et al., J. Am. Chem. Soc. 2006, 128:3148-3149]

[1] = tested on: human umbilical vein endothelial cells (HUVECs); details: cited from earlier work

Row | Compound | IC50 (HUVECs) [nM] | IC50 (HUVECs; Homo sapiens, HUVEC) [nM] | IC50 ([1]; natural cortistatin A tested by Kobayashi group, Aoki et al., J. Am. Chem. Soc. 2006, read-out: IC50 against HUVECs, natural cortistatin A) [nM] | IC50 (testing cells)/IC50 (HUVECs) ([1]; selectivity versus healthy or cancerous cell lines, Aoki et al. 2006) | biological activity compared with (+)cortistatin A (HUVECs; statement in words, refers to the HUVEC results discussed below it)
1 | CN(C)[C@H]1C[C@@]23CC[C@@]4(O2)C(=CC[C@]2(C)[C@@H](c5ccc6ccncc6c5)CC[C@H]24)C=C3[C@@H](O)[C@@H]1O [17-epi-cortistatin A] | > 1000 | – | – | – | –
2 | CN(C)[C@H]1C[C@@]23CC[C@@]4(O2)C(=CC[C@]2(C)[C@@H](c5ccc6ccncc6c5)CC[C@H]24)C=C3[C@@H](O)[C@@H]1O [cortistatin A, (+)-cortistatin A] | – | 2.43 | 1.8 | ≥ 3300 | –
3 | CN(C)[C@H]1C[C@@]23CC[C@@]4(O2)C(=CC[C@]2(C)C(c5ccc6ccncc6c5)=CC[C@H]24)C=C3[C@@H](O)[C@@H]1O [Δ^16-cortistatin A] | – | 3.88 | – | – | substantially the same as that of (+)cortistatin A
